Several values for one entry are separate records, joined by “and”; a condition that tells them apart may be missing. Identical values can stand only once.
Columns and labels:
Experiment in all cases: biochemical
Set-up in all cases: endogenous in cells; host or cells: K562 cell extract; species or system K562 (extract); replicate k of n = 2 (each experiment ID is one independent experiment; two experiment IDs per compound)
Conditions in all cases: read-out: KDapp
[1] = target: MAPK9 (Homo sapiens, UniProt P45984)
Sequence of MAPK9 (P45984 whole entry): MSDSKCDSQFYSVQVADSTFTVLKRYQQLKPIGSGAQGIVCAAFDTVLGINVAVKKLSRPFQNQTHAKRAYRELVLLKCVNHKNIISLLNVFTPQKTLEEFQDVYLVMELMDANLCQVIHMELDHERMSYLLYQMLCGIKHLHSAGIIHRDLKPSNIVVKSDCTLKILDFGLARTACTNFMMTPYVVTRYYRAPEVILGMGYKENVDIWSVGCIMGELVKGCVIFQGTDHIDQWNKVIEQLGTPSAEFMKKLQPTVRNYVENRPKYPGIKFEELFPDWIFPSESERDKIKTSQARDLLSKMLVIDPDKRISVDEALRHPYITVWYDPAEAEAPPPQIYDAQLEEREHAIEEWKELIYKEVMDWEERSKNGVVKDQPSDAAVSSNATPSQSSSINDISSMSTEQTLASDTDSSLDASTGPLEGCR

[2] = target: CDK9 (Homo sapiens, UniProt P50750)
Sequence of CDK9 (P50750 whole entry): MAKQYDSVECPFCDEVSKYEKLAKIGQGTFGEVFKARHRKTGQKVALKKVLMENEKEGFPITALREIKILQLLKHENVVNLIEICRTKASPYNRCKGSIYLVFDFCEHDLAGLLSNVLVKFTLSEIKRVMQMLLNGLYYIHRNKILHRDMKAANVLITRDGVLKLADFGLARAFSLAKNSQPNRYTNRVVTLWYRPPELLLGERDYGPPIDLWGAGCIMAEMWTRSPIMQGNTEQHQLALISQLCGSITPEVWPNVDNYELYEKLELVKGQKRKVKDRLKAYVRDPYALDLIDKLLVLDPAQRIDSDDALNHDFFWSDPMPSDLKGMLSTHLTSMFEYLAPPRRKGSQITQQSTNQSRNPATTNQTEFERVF

[3] = target: T1, PIP4K2A (Homo sapiens, UniProt P48426)
T1 sequence (P48426 1-406): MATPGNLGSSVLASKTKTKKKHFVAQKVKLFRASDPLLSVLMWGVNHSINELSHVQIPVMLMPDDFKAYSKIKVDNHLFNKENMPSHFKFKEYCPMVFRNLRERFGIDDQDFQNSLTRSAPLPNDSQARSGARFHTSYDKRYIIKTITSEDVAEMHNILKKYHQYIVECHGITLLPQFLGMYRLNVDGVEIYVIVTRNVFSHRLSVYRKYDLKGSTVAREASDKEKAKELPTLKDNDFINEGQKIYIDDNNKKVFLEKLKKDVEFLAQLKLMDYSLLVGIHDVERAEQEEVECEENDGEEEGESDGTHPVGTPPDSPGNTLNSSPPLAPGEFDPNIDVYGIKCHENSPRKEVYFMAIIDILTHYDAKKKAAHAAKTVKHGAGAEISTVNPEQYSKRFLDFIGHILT

[4] = target: T2, MAP2K5 (Homo sapiens, UniProt Q13163)
T2 sequence (Q13163 1-448): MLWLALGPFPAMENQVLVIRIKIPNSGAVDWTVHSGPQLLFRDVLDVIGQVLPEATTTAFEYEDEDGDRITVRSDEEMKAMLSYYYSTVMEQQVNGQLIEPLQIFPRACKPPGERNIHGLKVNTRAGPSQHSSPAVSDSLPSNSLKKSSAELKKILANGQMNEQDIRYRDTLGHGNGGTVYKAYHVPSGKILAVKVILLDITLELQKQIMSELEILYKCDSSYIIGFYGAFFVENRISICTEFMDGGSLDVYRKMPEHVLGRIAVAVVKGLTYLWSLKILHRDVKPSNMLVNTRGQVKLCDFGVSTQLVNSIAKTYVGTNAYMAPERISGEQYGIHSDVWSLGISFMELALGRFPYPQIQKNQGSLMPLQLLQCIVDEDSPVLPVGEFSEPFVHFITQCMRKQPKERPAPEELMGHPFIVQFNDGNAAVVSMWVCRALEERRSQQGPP

[5] = target: DYRK1A (Homo sapiens, UniProt Q13627)
[6] = target: STK16 (Homo sapiens, UniProt O75716)
Sequence of STK16 (O75716 whole entry): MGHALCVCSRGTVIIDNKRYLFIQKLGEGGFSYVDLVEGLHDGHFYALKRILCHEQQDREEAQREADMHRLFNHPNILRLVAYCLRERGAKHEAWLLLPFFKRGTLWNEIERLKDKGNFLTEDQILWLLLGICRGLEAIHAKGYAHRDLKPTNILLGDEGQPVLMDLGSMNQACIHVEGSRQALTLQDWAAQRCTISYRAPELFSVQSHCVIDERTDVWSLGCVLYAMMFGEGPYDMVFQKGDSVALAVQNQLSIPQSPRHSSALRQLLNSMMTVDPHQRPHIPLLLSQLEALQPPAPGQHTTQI

[7] = target: PRKCQ (Homo sapiens, UniProt Q04759)
Sequence of PRKCQ (Q04759 whole entry): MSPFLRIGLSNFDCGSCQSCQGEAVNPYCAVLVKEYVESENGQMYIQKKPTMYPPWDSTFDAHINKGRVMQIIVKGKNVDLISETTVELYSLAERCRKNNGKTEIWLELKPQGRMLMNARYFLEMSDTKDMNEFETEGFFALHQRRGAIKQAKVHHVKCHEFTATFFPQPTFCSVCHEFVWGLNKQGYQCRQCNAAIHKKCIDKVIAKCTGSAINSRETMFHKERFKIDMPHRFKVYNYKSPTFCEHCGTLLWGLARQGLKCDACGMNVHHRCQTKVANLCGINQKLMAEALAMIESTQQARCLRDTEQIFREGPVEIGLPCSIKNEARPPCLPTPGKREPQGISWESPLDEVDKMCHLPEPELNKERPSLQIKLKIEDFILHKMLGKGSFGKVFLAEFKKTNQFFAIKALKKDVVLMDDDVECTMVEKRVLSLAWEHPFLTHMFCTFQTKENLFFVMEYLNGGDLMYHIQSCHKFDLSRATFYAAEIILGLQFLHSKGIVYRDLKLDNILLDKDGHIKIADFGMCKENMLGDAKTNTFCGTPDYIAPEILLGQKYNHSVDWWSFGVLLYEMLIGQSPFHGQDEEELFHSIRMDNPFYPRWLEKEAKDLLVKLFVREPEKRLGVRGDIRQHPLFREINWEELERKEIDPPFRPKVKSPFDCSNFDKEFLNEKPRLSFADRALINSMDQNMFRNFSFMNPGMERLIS

[8] = target: RIPK2 (Homo sapiens, UniProt O43353)
Sequence of RIPK2 (O43353 whole entry): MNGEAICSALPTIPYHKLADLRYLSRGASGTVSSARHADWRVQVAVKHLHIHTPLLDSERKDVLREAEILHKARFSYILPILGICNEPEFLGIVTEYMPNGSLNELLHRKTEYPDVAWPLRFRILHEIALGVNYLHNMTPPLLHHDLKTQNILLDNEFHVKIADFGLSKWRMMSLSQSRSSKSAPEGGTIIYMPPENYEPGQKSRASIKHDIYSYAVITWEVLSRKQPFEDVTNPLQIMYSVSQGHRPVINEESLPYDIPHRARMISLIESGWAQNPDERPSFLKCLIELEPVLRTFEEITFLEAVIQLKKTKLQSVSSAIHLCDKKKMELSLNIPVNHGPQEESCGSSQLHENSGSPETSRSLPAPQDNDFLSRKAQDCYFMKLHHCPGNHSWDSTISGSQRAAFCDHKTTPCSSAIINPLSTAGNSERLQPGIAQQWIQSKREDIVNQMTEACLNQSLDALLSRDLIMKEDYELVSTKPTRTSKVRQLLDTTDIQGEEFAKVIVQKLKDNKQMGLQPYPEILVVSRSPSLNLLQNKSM

[9] = target: SRC (Homo sapiens, UniProt P12931)
Sequence of SRC (P12931 whole entry): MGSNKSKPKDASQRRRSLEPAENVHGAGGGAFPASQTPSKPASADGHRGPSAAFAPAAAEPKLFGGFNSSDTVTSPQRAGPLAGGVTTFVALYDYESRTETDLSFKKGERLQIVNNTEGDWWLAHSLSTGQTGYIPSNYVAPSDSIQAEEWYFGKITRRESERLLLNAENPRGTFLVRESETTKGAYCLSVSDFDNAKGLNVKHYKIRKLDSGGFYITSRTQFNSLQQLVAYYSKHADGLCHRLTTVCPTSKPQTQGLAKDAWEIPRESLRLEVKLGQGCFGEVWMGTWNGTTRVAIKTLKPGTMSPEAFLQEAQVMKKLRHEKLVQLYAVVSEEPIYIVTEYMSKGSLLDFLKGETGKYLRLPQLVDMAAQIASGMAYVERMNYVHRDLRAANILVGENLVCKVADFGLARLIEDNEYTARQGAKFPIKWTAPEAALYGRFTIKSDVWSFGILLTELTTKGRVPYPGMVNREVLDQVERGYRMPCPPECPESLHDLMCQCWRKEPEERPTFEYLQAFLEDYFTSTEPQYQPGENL

[10] = target: PRKAA1 (Homo sapiens, UniProt Q13131)
Sequence of PRKAA1 (Q13131 whole entry): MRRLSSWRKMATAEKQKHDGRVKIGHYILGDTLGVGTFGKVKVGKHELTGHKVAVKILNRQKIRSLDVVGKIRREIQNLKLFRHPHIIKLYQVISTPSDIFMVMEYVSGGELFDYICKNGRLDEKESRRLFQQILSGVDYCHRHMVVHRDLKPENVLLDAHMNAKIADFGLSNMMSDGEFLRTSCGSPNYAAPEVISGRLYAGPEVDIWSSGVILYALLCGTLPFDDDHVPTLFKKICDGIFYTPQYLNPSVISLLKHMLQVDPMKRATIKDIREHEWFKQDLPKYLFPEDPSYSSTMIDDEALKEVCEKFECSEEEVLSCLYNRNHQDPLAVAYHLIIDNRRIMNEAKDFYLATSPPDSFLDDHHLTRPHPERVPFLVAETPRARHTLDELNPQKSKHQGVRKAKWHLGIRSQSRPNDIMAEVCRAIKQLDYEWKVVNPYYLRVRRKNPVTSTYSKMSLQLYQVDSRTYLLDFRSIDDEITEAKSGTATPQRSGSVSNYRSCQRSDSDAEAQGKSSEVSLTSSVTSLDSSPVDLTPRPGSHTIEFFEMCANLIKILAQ

[11] = target: MAP3K11 (Homo sapiens, UniProt Q16584)
Sequence of MAP3K11 (Q16584 whole entry): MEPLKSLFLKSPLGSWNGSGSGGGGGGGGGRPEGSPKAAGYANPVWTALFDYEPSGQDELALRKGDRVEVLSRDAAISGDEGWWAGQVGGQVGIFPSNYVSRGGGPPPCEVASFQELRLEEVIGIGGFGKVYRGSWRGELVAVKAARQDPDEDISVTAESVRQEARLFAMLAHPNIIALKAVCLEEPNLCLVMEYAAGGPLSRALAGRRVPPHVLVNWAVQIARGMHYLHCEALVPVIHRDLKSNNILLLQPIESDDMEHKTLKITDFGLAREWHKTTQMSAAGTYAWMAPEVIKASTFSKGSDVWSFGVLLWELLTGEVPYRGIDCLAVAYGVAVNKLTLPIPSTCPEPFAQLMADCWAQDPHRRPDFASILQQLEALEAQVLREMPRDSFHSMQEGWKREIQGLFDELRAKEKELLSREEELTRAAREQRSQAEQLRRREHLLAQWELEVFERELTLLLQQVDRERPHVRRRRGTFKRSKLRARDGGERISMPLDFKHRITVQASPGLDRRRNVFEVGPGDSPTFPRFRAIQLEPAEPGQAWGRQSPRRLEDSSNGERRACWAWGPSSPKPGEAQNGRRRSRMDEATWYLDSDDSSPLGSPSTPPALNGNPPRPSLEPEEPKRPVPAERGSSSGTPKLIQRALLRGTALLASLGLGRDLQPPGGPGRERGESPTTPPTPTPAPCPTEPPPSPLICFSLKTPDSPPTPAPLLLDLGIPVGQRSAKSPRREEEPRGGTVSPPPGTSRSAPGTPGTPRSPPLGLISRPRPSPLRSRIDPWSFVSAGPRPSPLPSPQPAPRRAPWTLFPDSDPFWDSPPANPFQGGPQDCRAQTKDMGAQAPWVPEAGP

[12] = target: GSK3A (Homo sapiens, UniProt P49840)
Sequence of GSK3A (P49840 whole entry): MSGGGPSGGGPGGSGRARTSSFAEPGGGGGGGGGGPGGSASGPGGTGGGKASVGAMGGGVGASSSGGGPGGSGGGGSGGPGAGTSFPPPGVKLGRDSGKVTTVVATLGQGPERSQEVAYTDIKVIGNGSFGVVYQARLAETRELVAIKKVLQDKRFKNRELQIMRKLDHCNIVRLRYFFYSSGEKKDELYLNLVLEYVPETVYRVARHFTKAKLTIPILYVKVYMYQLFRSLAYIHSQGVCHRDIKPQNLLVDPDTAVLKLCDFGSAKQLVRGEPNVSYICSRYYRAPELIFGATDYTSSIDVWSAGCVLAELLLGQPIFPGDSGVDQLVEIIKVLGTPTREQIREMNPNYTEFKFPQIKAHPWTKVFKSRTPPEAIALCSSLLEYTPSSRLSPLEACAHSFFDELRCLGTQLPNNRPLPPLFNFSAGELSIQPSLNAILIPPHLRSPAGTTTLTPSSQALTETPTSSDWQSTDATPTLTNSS

For `CN1CCN(c2ccc(Nc3ncc(C#N)c(Nc4ccccc4C(N)=O)n3)cc2)CC1.Cl` [TCMDC-134116], the Kd [1] was 0.23 µM and 0.209 µM, the Kd [2] was 0.576 µM and 0.393 µM and the Kd [3] was 0.775 µM and 0.987 µM. The Kd [4] was 0.218 µM and 0.283 µM, the Kd [5] was 0.286 µM and 0.263 µM and the Kd [6] was 0.135 µM and 0.19 µM. The Kd [7] was 0.858 µM and 0.65 µM, the Kd [8] was 0.273 µM and the Kd [9] was 0.184 µM and 0.157 µM. For the same compound, the Kd [10] was 0.0141 µM and 0.0182 µM, the Kd [11] was 0.0463 µM and the Kd [12] was 0.47 µM and 0.369 µM.
In the case of `Cl.NCC1(c2nc(-c3ccc(Cl)c(O)c3)c(-c3ccncc3)[nH]2)CCCCC1` [TCMDC-141154], the Kd [1] is reported as 0.355 µM, the Kd [4] is reported as 0.479 µM and the Kd [7] is reported as 0.786 µM and 1 µM. For the same compound, the Kd [8] was 0.0145 µM and 0.0175 µM and the Kd [9] was 0.111 µM.
For `CN(C)CC(O)COc1ccc(Nc2ncc([N+](=O)[O-])c(Nc3ccccc3O)n2)cc1.O=C(O)C(F)(F)F` (stereo not drawn) [TCMDC-141399], the Kd [2] was 2.78 µM and 3.82 µM, the Kd [3] was 0.846 µM and 0.669 µM and the Kd [5] was 2.86 µM. The Kd [6] was 0.551 µM, the Kd [10] was 2.63 µM and 2.85 µM and the Kd [11] was 0.728 µM and 0.328 µM. The Kd [12] was 2.25 µM and 2.48 µM.

Source: article PMC4774911, “Biochemical Screening of Five Protein Kinases from Plasmodium falciparum against 14,000 Cell-Active Compounds” (PLoS ONE, 2016)
